Data reported in patent publication US10772875B2, “Agents enhancing HuR/ELAV protein levels for use in the treatment of BRAF-mutated cancers” (LES HOPITAUX UNIVERSITAIRES DE GENEVE, priority 2017, dated 2020).

Tests used:
HuR in MALME-3M cells = assay: Western blot of nuclear and cytoplasmic fractions for HuR expression, MALME-3M; assay type: cell-based, human; conditions: for HuR cytoplasmic content: C1 5 mM or 1 mM for 6 days, C2 15 μM 24 h
Description: (§1) Some HIV protease inhibitors (such as Nelfinavir) have been used in combination with a BRAF inhibitor to potentiate its effect (Smith et al., 2016, cancer cell, 29(3): 270-284) and some HIV protease inhibitors have (such as Lopinavir) been reported as increasing the cytosolic translocation of HuR (Chen et al., 2009, Biochem Pharmacol., 78(1): 70-77). Further, some polyamine depleting agents i.e. agents reducing the cellular content in polyamines (α-difluoromethylornithine (DFMO), also named Eflornithin) have been reported to modulate cytoplasmic HuR levels (Zou et al., 2006, J. Biol. Chem., 281(28):19387-94). Therefore, a […], Eflornithine (DFMO) and a HIV protease inhibitor, lopinavir ((2S)-N-[(2S,4S,5S)-5-[[2-(2,6-dimethylphenoxy)acetyl]amino]-4-hydroxy-1,6-diphenylhexan-2-yl]-3-methyl-2-(2-oxo-1,3-diazinan-1-yl)butanamide) were tested as comparative examples ((comparative compounds C1 and C2, respectively)) for their ability to increase HuR cytoplasmic localization in melanoma (A375 and the MALME-3M cells (melanoma BRAF mutated sensitive cell lines) cell lines as follows and analysis was conducted by Western blot analysis as described in Example 1 [, except that the cells were treated with comparative compound C1 dissolved in DMSO at 5 mM or at 1 mM for 6 consecutive days, where fresh medium with C1 was added in 6 well plates every day and the cells were split every 3 days or the cells were treated with C2 at 15 μM dissolved in DMSO for 24 h. Cell fractionation was conducted using the NE-PER Nuclear and Cytoplasmic Extraction Reagents (ThermoFisher Scientific) according to the manufacturer's instructions. Nuclear (N) and cytoplasmic (C) fractions were analyzed for HuR expression by western blot as described above. […] As a comparison of successful increase in HuR cytoplasmic content, western blot analysis was performed on cells infected with aG or aH at m.o.i 5, 25 or 125 as described in Example1 (FIG. 8C).
(§2) Western blot analysis was conducted as described in Examples 1 and 5, except that cells were treated with LiCl at 1 mM (for 6 h for A375 and for 24 h for MALME-3M cells) before cell lysis and analysis. […] Considering that HuR is mainly a nuclear protein, the absence of any nuclear contamination in the cytoplasm as observed here fulfils the experimental requirements. The increased cytoplasmic expression of HuR was quantified as being respectively 80% and 50% increased in A375 and Malme 3M melanoma cells using an image quantification software (ImageJ).

HuR in A375 cells = assay: Western blot of nuclear and cytoplasmic fractions for HuR expression, A375; assay type: cell-based, human; conditions: for HuR cytoplasmic content: C1 5 mM or 1 mM for 6 days, C2 15 μM 24 h
Description: as §1, §2

A375 cells = assay: WST-1 cell proliferation assay, vemurafenib dose response; assay type: cell-based; conditions: for proliferation rate increase (paradoxical proliferation): A375 cells, 48 h
Protocol: The A375 BRAFV600E melanoma cell line was purchased from CLS Cell Lines Service GmbH (Cryovial: 300110). A375 cells were maintained at 37° C. and 5% CO2 in a humidified atmosphere and grown in DMEM (Dulbecco's modified Eagle's medium) growth media supplemented with 10% FBS (fetal bovine serum), 2 mM glutamine, 1% penicillin/streptomycin. Cells were verified to be mycoplasma-free (PanReac Applichem mycoplasma test kit). Cells were treated with the BRAF inhibitor, vemurafenib (Selleckchem), also known as N-[3-[5-(4-chlorophenyl)-1H-pyrrolo[2,3-b]pyridine-3-carbonyl]-2,4-difluorophenyl]propane-1-sulfonamide and dissolved in dimethyl sulphoxide (DMSO, 10 mM storing concentration).
Cell proliferation was measured using WST-1 reagent (Roche applied Science). Melanoma cells were plated (2500 cells per well) in 96-well tissue culture plates. After 24 h, the cells were treated with vemurafenib or DMSO (excipient) at the indicated concentrations in triplicate or quadruplicate. The excipient is used at the same dilution as the one necessary to get the desired concentration of vemurafenib, in that case for example if 1/1000 dilution is necessary to get a 100 nM final concentration of vemurafenib, then the DMSO pure stock solution will be also diluted to 1/1000. For the standard proliferation assays, after the treatment period of 48 h, WST-reagent (20 μl, 10% of the final volume) was added to the wells and incubated at 37° C. for 1 to 2 h depending on the experiment in order to stay within the linear range of the assay. The plates were read at 450(−650) nm on a Vmax kinetic ELISA Microplate Reader (Molecular Devices). Cell proliferation is expressed as percentage of the absorbance compared with the DMSO-treated cells. Proliferation assays for overexpression experiments were scheduled as follows: A375 cells were plated (800000 cells per well) in six-well culture plates. After 24 h, the cells were infected overnight at indicated m.o.i. […]

[1] = test system: BRAF-mutant colorectal patients; conditions: BRAF-mutant colorectal patients (Kopetz et al., 2010); cited from earlier work
[2] = test system: HuR in A375 melanoma cells; assay: Whole cell extract western blot on HuR-expressing adenovirus-infected A375 cells; conditions: Li 1 mM and 10 mM
Protocol: Western blot analysis was performed on cell extracts of A375 cells at 48 h post-infection. Whole cell lysates were prepared using RIPA (radioimmunoprecipitation assay) buffer (PBS (phosphate-buffered saline), 1% NP40 (nonyl phenoxypolyethoxylethanol 40), 0.1% sodium deoxycholate, 0.1% SDS (sodium dodecyl sulphate)) supplemented with fresh protease and phosphatase inhibitors (easy packs tablets, Roche). Cell lysates were quantified for protein content using Bio-Rad DC (detergent compatible) kit. Protein samples were resolved on 12.5% polyacrylamide Bis-Tris gel (Bio-rad) and then transferred to nitrocellulose membrane. After saturation, the membranes were incubated overnight with the anti-HuR mouse monoclonal antibody (Santa-Cruz/3A2-sc-5261, 1:1000) raised against full-length HuR of human origin. The secondary antibody conjugated to horseradish-peroxidase (Bio-Rad goat anti-mouse IgG-HRP, 1:3000) was incubated at room temperature for 30 minutes. Blots were developed using the ECL (enhanced chemiluminescent) system (Thermo-Scientific) according to the manufacturer's instructions.

SMILES: Cc1cccc(C)c1OCC(=O)N[C@@H](Cc1ccccc1)[C@@H](O)C[C@H](Cc1ccccc1)NC(=O)[C@H](C(C)C)N1CCCNC1=O [C2, (2S)-N-[(2S,4S,5S)-5-[[2-(2,6-dimethylphenoxy)acetyl]amino]-4-hydroxy-1,6-diphenylhexan-2-yl]-3-methyl-2-(2-oxo-1,3-diazinan-1-yl)butanamide]
- HuR cytoplasmic content (HuR in MALME-3M cells; MALME-3M cells): no increase of HuR cytoplasmic content
- HuR cytoplasmic content (HuR in A375 cells): no increase of HuR cytoplasmic content

SMILES: CCCS(=O)(=O)Nc1ccc(F)c(C(=O)c2c[nH]c3ncc(-c4ccc(Cl)cc4)cc23)c1F [vemurafenib, N-{3-[5-(4-chlorophenyl)-1H-pyrrolo[2,3-b]pyridine-3-carbonyl]-2,4-difluorophenyl}propane-1-sulfonamide]
- proliferation rate increase (paradoxical proliferation) (A375 cells; 20 nM vemurafenib): up to 50%
- proliferation rate increase (paradoxical proliferation) (A375 cells; 100 nM vemurafenib): up to 25%
- vemurafenib-induced paradoxical proliferation (A375 cells; aH cells (HuR-overexpressing A375), in contrast to aG or non-infected cells): no vemurafenib-induced paradoxical proliferation was observed
- patients who respond [1]: ~5%

SMILES: [Cl-].[Li+] [LiCl, Lithium Chloride]
- total amount of HuR expression (endogenous and exogenous epitope-tagged HuR) [2]: clearly increases the total amount of HuR expression with a dose effect
- total amount of HuR expression and HuR cytoplasmic content (HuR in MALME-3M cells; MALME-3M cells, LiCl 1 mM): increase of both total amount of HuR expression and HuR cytoplasmic content
- increased cytoplasmic expression of HuR (ImageJ quantification) (HuR in MALME-3M cells; Malme 3M cells, LiCl 1 mM, 24 h): 50%
- total amount of HuR expression and HuR cytoplasmic content (HuR in A375 cells; LiCl 1 mM): increase of both total amount of HuR expression and HuR cytoplasmic content
- increased cytoplasmic expression of HuR (ImageJ quantification) (HuR in A375 cells; LiCl 1 mM, 6 h): 80%

SMILES: NCCC[C@](N)(C(=O)O)C(F)F [C1, α-difluoromethylornithine]
- HuR cytoplasmic content (HuR in MALME-3M cells; MALME-3M cells): no increase of HuR cytoplasmic content
- HuR cytoplasmic content (HuR in A375 cells): no increase of HuR cytoplasmic content
